Measurements from the NIST ThermoML archive (doi:10.1021/je050021e).
Numbers after ± are expanded uncertainties.

Assay: xn = mol fraction of the nth substance listed
Settings: 101 kPa, Liquid

## CC(=O)N1CCOCC1 [4-acetylmorpholine] + O
323.15 K, x1 = 0.05
  mass density: 1021.29 ± 0.55 kg/m3
  viscosity: 0.998 ± 0.032 mPa·s
323.15 K, x1 = 0.07
  mass density: 1031.03 ± 0.56 kg/m3
  viscosity: 1.21 ± 0.04 mPa·s
323.15 K, x1 = 0.1
  mass density: 1043.19 ± 0.56 kg/m3
  viscosity: 1.65 ± 0.05 mPa·s
323.15 K, x1 = 0.2
  mass density: 1067.57 ± 0.58 kg/m3
  viscosity: 2.68 ± 0.08 mPa·s
323.15 K, x1 = 0.3
  mass density: 1078.79 ± 0.59 kg/m3
  viscosity: 3.51 ± 0.1 mPa·s
323.15 K, x1 = 0.4
  mass density: 1084.2 ± 0.59 kg/m3
  viscosity: 3.96 ± 0.11 mPa·s
323.15 K, x1 = 0.5
  mass density: 1086.6 ± 0.59 kg/m3
  viscosity: 4.13 ± 0.12 mPa·s
323.15 K, x1 = 0.6
  mass density: 1087.84 ± 0.59 kg/m3
  viscosity: 4.4 ± 0.13 mPa·s
323.15 K, x1 = 0.7
  mass density: 1088.43 ± 0.59 kg/m3
  viscosity: 4.13 ± 0.12 mPa·s
323.15 K, x1 = 0.8
  mass density: 1088.71 ± 0.59 kg/m3
  viscosity: 4.06 ± 0.12 mPa·s
323.15 K, x1 = 0.9
  mass density: 1088.78 ± 0.59 kg/m3
  viscosity: 4 ± 0.12 mPa·s
323.15 K, x1 = 1
  mass density: 1088.74 ± 0.59 kg/m3
  viscosity: 3.96 ± 0.12 mPa·s
333.15 K, x1 = 0.05
  mass density: 1015.01 ± 0.55 kg/m3
  viscosity: 0.857 ± 0.028 mPa·s
333.15 K, x1 = 0.07
  mass density: 1024.27 ± 0.55 kg/m3
  viscosity: 1.04 ± 0.03 mPa·s
333.15 K, x1 = 0.1
  mass density: 1035.89 ± 0.56 kg/m3
  viscosity: 1.24 ± 0.04 mPa·s
333.15 K, x1 = 0.2
  mass density: 1059.2 ± 0.57 kg/m3
  viscosity: 2.05 ± 0.06 mPa·s
333.15 K, x1 = 0.3
  mass density: 1069.99 ± 0.58 kg/m3
  viscosity: 2.66 ± 0.08 mPa·s
333.15 K, x1 = 0.4
  mass density: 1075.32 ± 0.58 kg/m3
  viscosity: 3 ± 0.09 mPa·s
333.15 K, x1 = 0.5
  mass density: 1077.66 ± 0.58 kg/m3
  viscosity: 3.13 ± 0.09 mPa·s
333.15 K, x1 = 0.6
  mass density: 1078.93 ± 0.59 kg/m3
  viscosity: 3.41 ± 0.1 mPa·s
333.15 K, x1 = 0.7
  mass density: 1079.63 ± 0.59 kg/m3
  viscosity: 3.18 ± 0.09 mPa·s
333.15 K, x1 = 0.8
  mass density: 1079.97 ± 0.59 kg/m3
  viscosity: 3.17 ± 0.09 mPa·s
333.15 K, x1 = 0.9
  mass density: 1080.1 ± 0.59 kg/m3
  viscosity: 3.14 ± 0.09 mPa·s
333.15 K, x1 = 1
  mass density: 1080.14 ± 0.59 kg/m3
  viscosity: 3.12 ± 0.1 mPa·s
343.15 K, x1 = 0.05
  mass density: 1008.29 ± 0.54 kg/m3
  viscosity: 0.743 ± 0.025 mPa·s
343.15 K, x1 = 0.07
  mass density: 1017.17 ± 0.55 kg/m3
  viscosity: 0.861 ± 0.028 mPa·s
343.15 K, x1 = 0.1
  mass density: 1028.29 ± 0.55 kg/m3
  viscosity: 1.03 ± 0.03 mPa·s
343.15 K, x1 = 0.2
  mass density: 1050.63 ± 0.57 kg/m3
  viscosity: 1.66 ± 0.05 mPa·s
343.15 K, x1 = 0.3
  mass density: 1061.11 ± 0.57 kg/m3
  viscosity: 2.09 ± 0.06 mPa·s
343.15 K, x1 = 0.4
  mass density: 1066.32 ± 0.58 kg/m3
  viscosity: 2.34 ± 0.07 mPa·s
343.15 K, x1 = 0.5
  mass density: 1068.66 ± 0.58 kg/m3
  viscosity: 2.46 ± 0.07 mPa·s
343.15 K, x1 = 0.6
  mass density: 1070 ± 0.58 kg/m3
  viscosity: 2.59 ± 0.08 mPa·s
343.15 K, x1 = 0.7
  mass density: 1070.82 ± 0.58 kg/m3
  viscosity: 2.54 ± 0.08 mPa·s
343.15 K, x1 = 0.8
  mass density: 1071.21 ± 0.58 kg/m3
  viscosity: 2.53 ± 0.08 mPa·s
343.15 K, x1 = 0.9
  mass density: 1071.43 ± 0.58 kg/m3
  viscosity: 2.54 ± 0.08 mPa·s
343.15 K, x1 = 1
  mass density: 1071.55 ± 0.58 kg/m3
  viscosity: 2.55 ± 0.08 mPa·s
